Literature values, collected in patent publication US20100143471A1, “NOVEL REDUCED DOSE PHARMACEUTICAL COMPOSITIONS OF FE[…] PSEUDOEPHEDRINE” (LUPIN LIMITED, priority 2007, published 2010).
Where a name gives a salt, the structure may show the parent alone.

Test system: seasonal allergic rhinitis symptoms
Details: children aged 6-11 years

In the case of CC(C)(C(=O)O)c1ccc(C(O)CCCN2CCC(C(O)(c3ccccc3)c3ccccc3)CC2)cc1 (centres unmarked) [fexofenadine HCl], the “reduction of seasonal allergic rhinitis symptoms” value (30 mg bid) is listed as “effectively reduces all seasonal allergic rhinitis symptoms”.
In the case of CC(C)(C(=O)O)c1ccc(C(O)CCCN2CCC(C(O)(c3ccccc3)c3ccccc3)CC2)cc1 (centres unmarked) [fexofenadine], the safety and sedation (doses of up to 60 mg bid) is given as “safe and nonsedating”.
